The source of these data is patent US20250179059A1 (The Regents of the University of California, priority 2021, published 2025).

What is called IC50 is the point on the concentration scale where inhibition reaches its midpoint. By GI50 is commonly meant the concentration at which growth is held to half of that of the control. Read a low GI50 as more potent growth inhibition.

For experiment [1], the target named is T1, human BRD4 bromodomain II (Homo sapiens, UniProt O60885).
T1 construct: human BRD4 bromodomain II [based on Genbank NM_058243, residues 349-460]; host or cells: E. coli
The experiment is described as follows: Bromodomain binding assay (AlphaScreen), BRD4 BDII. Conditions: BRD4 BDII AlphaScreen assay; read-out: BRD4 BD2 IC50. In short, it runs like this: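 Compounds (10-point, 3-fold series) were preincubated 30 min at room temperature with E. coli-expressed N-terminal His6-tagged BRD4 BDII (residues 349-460) or BDI (residues 44-170) in 50 mM HEPES pH 7.5, 100 mM NaCl, 0.05% CHAPS, 0.1% BSA, 1% DMSO. Displacement of biotinylated tetra-acetylated H4 1-21 peptide was read by AlphaScreen; IC50 from curve fitting.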
(In general: Alpha assays give light when donor and acceptor beads are brought close together.)

In experiment [2] the test system is human SKM-1 acute myeloid leukemia cells. The experiment is described as follows: SKM-1 antiproliferation cell-based assay (ATPlite). Conditions: Homo sapiens, SKM-1, SKM-1 antiproliferation assay. In short, it runs like this:
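Log-phase cells in RPMI 1640/15% FBS were seeded at 34722 cells/mL and exposed for 4 days to nine-concentration DMSO serial dilutions in triplicate. Viability was read as ATP luminescence (ATPlite 1step), and IC50 values came from variable-slope non-linear regression.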
Background: Cellular ATP, detected with luciferase, serves as a proxy for viable cell number.

The structures appear in SMILES notation.

As for `Cc1cc(-c2ccc(-n3ccn(C)c3=O)c(Cl)c2)c(O)c(-c2cnc(N)c(N3CCN(C(C)(C)C)CC3)c2)n1` [Example 962, 1-(4-(6′-amino-5′-(4-(tert-butyl)piperazin-1-yl)-3-hydroxy-6-methyl-[2,3′-bipyridin]-4-yl)-2-chlorophenyl)-3-methyl-1H-imidazol-2(3H)-one], in experiment [1], the IC50 is 1 to 10 nM. In experiment [2], this molecule gave a GI50 of 0.3 to 30 nM.
The matching figures for `CNc1ncc(-c2nc(C)cc(-c3ccc(-n4ccn(C)c4=O)c(Cl)c3)c2O)cc1N1CCN(C(C)(C)C)CC1` [Example 963, 1-(4-(5′-(4-(tert-butyl)piperazin-1-yl)-3-hydroxy-6-methyl-6′-(methylamino)-[2,3′-bipyridin]-4-yl)-2-chlorophenyl)-3-methyl-1H-imidazol-2(3H)-one]: 1 to 10 nM and 0.3 to 30 nM.
For `Cc1cc(-c2ccc(-n3ccn(C)c3=O)c(Cl)c2)c(O)c(-c2cnc(N(C)C)c(N3CCN(C(C)(C)C)CC3)c2)n1` [Example 964, 1-(4-(5′-(4-(tert-butyl)piperazin-1-yl)-6′-(dimethylamino)-3-hydroxy-6-methyl-[2,3′-bipyridin]-4-yl)-2-chlorophenyl)-3-methyl-1H-imidazol-2(3H)-one] the same measures were 0.01 to 1 nM and 0.3 to 30 nM.
For `CNc1ncc(-c2cc(F)cc(-c3ccc(-n4ccn(C)c4=O)c(Cl)c3)c2O)cc1N1CCC2(CCN2C(C)C)C1` (stereo not drawn) [Example 965, 1-{3-Chloro-5′-fluoro-2′-hydroxy-3′-[5-(1-isopropyl-1,6-diaza-spiro[3.4]oct-6-yl)-6-methylamino-pyridin-3-yl]-biphenyl-4-yl}-3-methyl-1,3-dihydro-imidazol-2-one] the same measures were 1 to 10 nM and 0.3 to 30 nM.
On to `CC(C)N1CCC[C@@]12CCN(c1cccc(-c3cc(F)cc(-c4ccc(-n5ccn(C)c5=O)c(Cl)c4)c3O)c1)C2` [Example 966, (S)-1-(3-chloro-5′-fluoro-2′-hydroxy-3″-(1-isopropyl-1,7-diazaspiro[4.4]nonan-7-yl)-[1,1′:3′,1″-terphenyl]-4-yl)-3-methyl-1,3-dihydro-2H-imidazol-2-one], for which the IC50 in experiment [1] is 1 to 10 nM. Besides, the GI50 in experiment [2] was in the range of 30 to 300 nM.
For the molecule `CC(C)N1CCC[C@]12CCN(c1cccc(-c3cc(F)cc(-c4ccc(-n5ccn(C)c5=O)c(Cl)c4)c3O)c1)C2` [Example 967, (R)-1-(3-chloro-5′-fluoro-2′-hydroxy-3″-(1-isopropyl-1,7-diazaspiro[4.4]nonan-7-yl)-[1,1′:3′,1″-terphenyl]-4-yl)-3-methyl-1,3-dihydro-2H-imidazol-2-one], the IC50 in experiment [1] was in the range of 1 to 10 nM. Further, the GI50 in experiment [2] fell in the range of 30 to 300 nM.
For `CC(C)N1CCCC12CCN(c1cc(-c3cc(F)cc(-c4ccc(-n5ccn(C)c5=O)c(Cl)c4)c3O)cnc1N)C2` (stereo not drawn) [Example 968, 1-(3′-(6-amino-5-(1-isopropyl-1,7-diazaspiro[4.4]nonan-7-yl)pyridin-3-yl)-3-chloro-5′-fluoro-2′-hydroxy-[1,1′biphenyl]-4-yl)-3-methyl-1H-imidazol-2(3H)-one] the same measures were 1 to 10 nM and 0.3 to 30 nM.
For `CC(C)N1CCCC12CCN(c1cc(-c3cc(F)cc(-c4ccc(-n5ccn(C)c5=O)c(Cl)c4)c3O)cnc1N(C)C)C2` (stereo not drawn) [Example 969, 1-(3-chloro-3′-(6-(dimethylamino)-5-(1-isopropyl-1,7-diazaspiro[4.4]nonan-7-yl)pyridin-3-yl)-5′-fluoro-2′-hydroxy-[1,1′-biphenyl]-4-yl)-3-methyl-1H-imidazol-2(3H)-one], in experiment [1], the IC50 is 1 to 10 nM. This molecule displayed a GI50 in experiment [2] of 30 to 300 nM.
For `CNc1ncc(-c2cc(F)cc(-c3ccc(-n4ccn(C)c4=O)c(Cl)c3)c2O)cc1N1CCC2(CCCN2C(C)C)C1` (stereo not drawn) [Example 970, 1-(3-chloro-5′-fluoro-2′-hydroxy-3′-(5-(1-isopropyl-1,7-diazaspiro[4.4]nonan-7-yl)-6-(methylamino)pyridin-3-yl)-[1,1′-biphenyl]-4-yl)-3-methyl-1H-imidazol-2(3H)-one] the same measures were 1 to 10 nM and 0.3 to 30 nM.
